In patent US6908935B2, “Calcium receptor modulating agents” (Amgen Inc., priority 2002, dated 2005) one finds EC50 data, which are given here for 29 compounds.

Where only a bound is given, the exact number is not on record here.

In this experiment the target is T1, human parathyroid cell Ca^2+ receptor (hPCaR) (Homo sapiens, UniProt P41180).
T1 construct: expressed in transfected cells
T1 sequence (P41180 20-1078): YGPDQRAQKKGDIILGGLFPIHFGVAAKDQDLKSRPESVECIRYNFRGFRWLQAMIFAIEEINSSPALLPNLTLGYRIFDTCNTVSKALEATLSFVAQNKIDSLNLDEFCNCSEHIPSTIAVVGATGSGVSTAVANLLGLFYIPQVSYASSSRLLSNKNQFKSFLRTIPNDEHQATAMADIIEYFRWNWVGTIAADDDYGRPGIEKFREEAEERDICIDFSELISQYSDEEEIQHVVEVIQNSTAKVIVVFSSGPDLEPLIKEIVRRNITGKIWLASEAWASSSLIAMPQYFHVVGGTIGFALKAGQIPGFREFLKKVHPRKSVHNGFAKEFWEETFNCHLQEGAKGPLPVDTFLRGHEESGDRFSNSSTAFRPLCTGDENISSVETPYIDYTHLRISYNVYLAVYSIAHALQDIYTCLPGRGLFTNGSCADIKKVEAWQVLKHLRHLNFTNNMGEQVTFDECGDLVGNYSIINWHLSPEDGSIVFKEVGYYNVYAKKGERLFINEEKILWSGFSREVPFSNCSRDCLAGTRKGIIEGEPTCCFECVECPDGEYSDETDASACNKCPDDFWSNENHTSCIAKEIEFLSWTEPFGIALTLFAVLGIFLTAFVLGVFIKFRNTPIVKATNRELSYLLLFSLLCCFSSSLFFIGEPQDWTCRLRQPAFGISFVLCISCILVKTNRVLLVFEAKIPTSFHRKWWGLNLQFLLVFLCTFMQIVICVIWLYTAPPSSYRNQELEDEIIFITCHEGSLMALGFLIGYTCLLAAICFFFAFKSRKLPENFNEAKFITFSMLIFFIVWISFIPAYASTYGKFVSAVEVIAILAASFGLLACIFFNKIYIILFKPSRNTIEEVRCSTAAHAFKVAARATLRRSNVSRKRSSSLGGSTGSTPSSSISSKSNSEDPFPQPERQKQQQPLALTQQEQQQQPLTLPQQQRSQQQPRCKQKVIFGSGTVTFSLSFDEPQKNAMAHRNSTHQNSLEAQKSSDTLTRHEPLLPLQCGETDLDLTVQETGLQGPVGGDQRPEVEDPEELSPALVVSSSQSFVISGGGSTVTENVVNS
Put plainly: [Ca2+]i measurement with fluo-3 in HEK 293 4.0-7 cells stably transfected with hPCaR. The class given is cell-based. Particulars: fluo-3 fluorescence (485/530 nm), effect on [Ca^2+]i. The protocol:
The activities of the compounds of the present invention on calcium receptors were measured. In one embodiment, the measurement was performed in accordance with the method described in Example 4 of Nemeth et al., PCT/US95/13704 (International Publication No. WO96/12697) herein incorporated by reference.
A 4.0-kb NotI-HindIII fragment of the human parathyroid cell Ca^2+ receptor (hPCaR) cDNA was subcloned into the mammalian expression vector pCEP4 (Invitrogen) containing the hygromycin-resistant gene as a selectable marker. This plasmid was transfected into HEK 293 cells by calcium phosphate precipitation. Transfected cells were grown in Dulbecco's modified Eagle's medium containing 10% fetal bovine serum and hygromycin (200 μg/mL). Hygromycin-resistant colonies were subcloned and assayed for hPCaR mRNA by solution hybridization using a ^32P-labeled RNA probe complementary to the (4.0 kb) hPCaR sequence (Garrett, et al., J. Biol. Chem. 270, 12919-12925 (1995)). Clone 7 was used to assess the effects of compounds on [Ca^2+]i. This stably transfected cell line is termed HEK 293 4.0-7. For measurements of [Ca^2+]i, the cells were recovered from tissue culture flasks by brief treatment with 0.02% EDTA and then washed and resuspended in PCB containing 1 mM CaCl2 and 0.1% Bovine Serum Albumin (“BSA”). The cells were loaded with fluo-3 by incubation for 30 min at 37° C., with parathyroid cell buffer (126 mM NaCl, 4 mM KCl, 1 mM MgSO4, 0.7 mM K2HPO/KH2PO4, 20 mM HEPES.NaOH (pH 7.45)) containing 0.5% BSA in lmM CaCl2 and 2 μM fluo-3 acetoxymethyl ester. The cells were subsequently washed, each test compound was added to the cells and the fluorescence was recorded by using excitation and emission wavelengths of 485 and 530 nm, respectively.

As to `COc1ccc(CN[C@H](C)c2cccc3ccccc23)cc1-c1nc2ccccc2n1C` [(1R)-N-((3-(1-methyl-1H-benzimidazol-2-yl)-4-(methyloxy)phenyl)methyl)-1-(1-naphthalenyl)ethanamine], the EC50 was ≤ 10 µM.
As for `COc1ccc(CN[C@H](C)c2ccccc2)cc1-c1cccs1` [(1R)-N-((4-(methyloxy)-3-(2-thienyl)phenyl)methyl)-1-phenylethanamine], the concentration giving a half-maximal response (EC50) was ≤ 10 µM.
In the case of `COc1ccc(CN[C@H](C)c2cccc3ccccc23)cc1-c1coc(C)n1` [(1R)-N-((3-(2-methyl-1,3-oxazol-4-yl)-4-(methyloxy)phenyl)methyl)-1-(1-naphthalenyl)ethanamine] it was ≤ 10 µM; in that of `COc1ccc(CN[C@H](C)c2ccccc2)cc1-c1cnc(OCC(F)(F)F)nc1` [(1R)-N-((4-(methyloxy)-3-(2-((2,2,2-trifluoroethyl)oxy)-5-pyrimidinyl)phenyl)methyl)-1-phenylethanamine], ≤ 10 µM.
With `COc1ccc(CN[C@H](C)c2cccc3ccccc23)cc1-c1ccc(C(=O)N(C)C)cc1` [N,N-dimethyl-2′-(methyloxy)-5′-((((1R)-1-(1-naphthalenyl)ethyl)amino)methyl)-1,1′-biphenyl-4-carboxamide], the EC50 is ≤ 10 µM.
The same measure for `COc1ccc(CN[C@H](C)c2ccccc2)cc1-c1ccc2ccccc2c1` [(1R)-N-((4-(methyloxy)-3-(2-naphthalenyl)phenyl)methyl)-1-phenylethanamine]: ≤ 10 µM; for `COc1ccc(CN[C@H](C)c2ccccc2)cc1-c1ccc2nccn2c1` [(1R)-N-((3-imidazo[1,2-a]pyridin-6-yl-4-(methyloxy)phenyl)methyl)-1-phenylethanamine]: ≤ 10 µM; for `COc1ccc(CN[C@H](C)c2cccc3ccccc23)cc1-c1csc(N2CCCCC2)n1` [(1R)-N-((4-(methyloxy)-3-(2-(1-piperidinyl)-1,3-thiazol-4-yl)phenyl)methyl)-1-(1-naphthalenyl)ethanamine]: ≤ 10 µM.
Regarding `COc1ccc(CN[C@H](C)c2ccccc2)cc1-c1ccc(OCC(F)(F)F)nc1` [(1R)-N-((4-(methyloxy)-3-(6-((2,2,2-trifluoroethyl)oxy)-3-pyridinyl)phenyl)methyl)-1-phenylethanamine], the EC50 is ≤ 10 µM.
In the case of `COc1cccc([C@@H](C)NCc2ccc(OC)c(-c3cc(OC)ccn3)c2)c1` [(1R)-N-((4-(methyloxy)-3-(4-(methyloxy)-2-pyridinyl)phenyl)methyl)-1-(3-(methyloxy)phenyl)ethanamine] it was ≤ 10 µM.
Turning to `COc1ccc(-c2cc(CN[C@H](C)c3cccc4ccccc34)ccc2OC)nc1` [(1R)-N-((4-(methyloxy)-3-(5-(methyloxy)-2-pyridinyl)phenyl)methyl)-1-(1-naphthalenyl)ethanamine], the EC50 is ≤ 10 µM.
As to `COc1ccc(CN[C@H](C)c2cccc(F)c2)cc1-c1ccc(S(C)(=O)=O)cc1` [(1R)-1-(3-fluorophenyl)-N-((6-(methyloxy)-4′-(methylsulfonyl)-1,1′-biphenyl-3-yl)methyl)ethanamine], the 50% effective concentration (EC50) was ≤ 10 µM.
Regarding `COc1cccc(-c2cccc(CN[C@H](C)c3ccc(C)cc3)c2)c1` [(1R)-N-((3′-(methyloxy)-1,1′-biphenyl-3-yl)methyl)-1-(4-methylphenyl)ethanamine], the EC50 was ≤ 10 µM.
In the case of `COc1ccc(CN[C@H](C)c2ccc(C)cc2)cc1-c1cnccn1` [(1R)-N-((4-(methyloxy)-3-(2-pyrazinyl)phenyl)methyl)-1-(4-methylphenyl)ethanamine] it was ≤ 10 µM; in that of `CCOC(=O)N1CC=C(c2cc(CN[C@H](C)c3cccc4ccccc34)ccc2OC)CC1` [ethyl 4-(2-(methyloxy)-5-((((1R)-1-(1-naphthalenyl)ethyl)amino)methyl)phenyl)-3,6-dihydro-1(2H)-pyridinecarboxylate], ≤ 10 µM; in that of `COc1ccc(CNC(C)c2cccc(F)c2)cc1-c1ccc(C(F)(F)F)cc1` (centres unmarked) [1-(3-fluorophenyl)-N-((6-(methyloxy)-4′-(trifluoromethyl)-1,1′-biphenyl-3-yl)methyl)ethanamine], ≤ 10 µM.
The same measure for `COc1ccc(CNC(C)c2cccc(Cl)c2Cl)cc1-c1ccc(C(F)(F)F)cc1` (centres unmarked) [1-(2,3-dichlorophenyl)-N-((6-(methyloxy)-4′-(trifluoromethyl)-1,1′-biphenyl-3-yl)methyl)ethanamine]: ≤ 10 µM; for `COc1cccc(-c2cc(CN[C@H](C)c3cccc(OC)c3)ccc2OC)c1` [(1R)-N-((3′,6-bis(methyloxy)-1,1′-biphenyl-3-yl)methyl)-1-(3-(methyloxy)phenyl)ethanamine]: ≤ 10 µM; for `COc1ccc(-c2cc(CN[C@H](C)c3cccc4ccccc34)ccc2OC)cn1` [(1R)-N-((4-(methyloxy)-3-(6-(methyloxy)-3-pyridinyl)phenyl)methyl)-1-(1-naphthalenyl)ethanamine]: ≤ 10 µM.
In the case of `Cc1ccc([C@@H](C)NCc2cccc(-c3ccccc3F)c2)cc1` [(1R)-N-((2′-fluoro-1,1′-biphenyl-3-yl)methyl)-1-(4-methylphenyl)ethanamine], the EC50 is ≤ 10 µM.
The same measure for `COc1ccc(CNC(C)c2cc(F)cc(F)c2)cc1-c1ccc(C(F)(F)F)cc1` (centres unmarked) [1-(3,5-difluorophenyl)-N-((6-(methyloxy)-4′-(trifluoromethyl)-1,1′-biphenyl-3-yl)methyl)ethanamine]: ≤ 10 µM.
In the case of `COc1cccc([C@@H](C)NCc2ccc(OC)c(-c3ccc4c(c3)ncn4C)c2)c1` [(1R)-N-((3-(1-methyl-1H-benzimidazol-5-yl)-4-(methyloxy)phenyl)methyl)-1-(3-(methyloxy)phenyl)ethanamine], the concentration for a half-maximal effect (EC50) is ≤ 10 µM.
As to `COc1cccc([C@@H](C)NCc2ccc(OC)c(-c3cnccn3)c2)c1` [(1R)-1-(3-(methyloxy)phenyl)-N-((4-(methyloxy)-3-(2-pyrazinyl)phenyl)methyl)ethanamine], the concentration for a half-maximal effect (EC50) is ≤ 10 µM.
In the case of `COc1ccc(CN[C@H](C)c2ccccc2)cc1-c1nc2ccccc2s1` [(1R)-N-((3-(1,3-benzothiazol-2-yl)-4-(methyloxy)phenyl)methyl)-1-phenylethanamine] it was ≤ 10 µM; in that of `COc1cccc([C@@H](C)NCc2cccc(-c3nc(C)no3)c2)c1` [(1R)-N-((3-(3-methyl-1,2,4-oxadiazol-5-yl)phenyl)methyl)-1-(3-(methyloxy)phenyl)ethanamine], ≤ 10 µM.
In the case of `COc1ccc(CN[C@H](C)c2cccc3ccccc23)cc1-c1ccc(S(C)(=O)=O)cc1` [(1R)-N-((6-(methyloxy)-4′-(methylsulfonyl)-1,1′-biphenyl-3-yl)methyl)-1-(1-naphthalenyl)ethanamine] it was ≤ 10 µM; in that of `C[C@@H](NCc1ccc(N2CCCC2)cc1)c1ccccc1` [(1R)-1-phenyl-N-((4-(1-pyrrolidinyl)phenyl)methyl)ethanamine], ≤ 10 µM; in that of `COc1ccccc1-c1cc(CN[C@H](C)c2ccccc2)ccc1OC` [Example 253, (1R)-N-((2′,6-bis(methyloxy)-1,1′-biphenyl-3-yl)methyl)-1-phenylethanamine], ≤ 10 µM.
On to `COc1ccc(CN[C@H](C)c2ccccc2)cc1-c1ccc2c(ccn2CC(F)(F)F)c1` [(1R)-N-((4-(methyloxy)-3-(1-(2,2,2-trifluoroethyl)-1H-indol-5-yl)phenyl)methyl)-1-phenylethanamine], for which the half-maximal effective concentration (EC50) was ≤ 10 µM.

By EC50 is commonly meant the concentration that produces a half-maximal response. Higher therefore signals a need for much substance.
